Data on 1 molecule can be found in patent US12565494B2, “Inhibitors of human respiratory syncytial virus and metapneumovirus” (priority 2022, dated 2026).

The subject of one test is hMPV-GFP virus. Nature of the test: microbe, parasite or virus in culture. It counts as cell-based, Human Metapneumovirus. As to conditions: Vero, 48 h, read-out: RSV EC50, Table II Summary of Activities for hMPV; VERO cells, hMPV-GFP MOI=1.25, 48 hrs, GFP-expressing cells counted. A digest of the protocol: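 VERO cells infected with GFP-expressing hMPV at MOI 1.25 and exposed to compound in 10-point 3-fold dilutions (typical final 40,300–2 nM) for 48 h at 37 °C. GFP-positive cells counted by imaging; same-well CellTiter-Glo for cytotoxicity. IC50 and CC50 from 4-parameter logistic fits.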

The next test relates to RSV-A2-GFP virus. Briefly: microbe, parasite or virus in culture. The test is classed as cell-based, Human Respiratory Syncytial Virus. Particulars: human respiratory syncytial virus, Calu-1, 96 h, read-out: RSV EC50, Table I Summary of Activities for RSV; Calu-1 cells, RSV-A2-GFP MOI=1.2, 96 hrs, GFP-expressing cells counted. A digest of the protocol:
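Assay-ready frozen Calu-1 cells (20,000 cells/mL) were infected with RSV-A2-GFP at MOI 1.2 in DMEM with 2% FBS and exposed to a 10-point 3-fold compound dilution for 96 h at 37 °C. GFP-positive cells were counted by imaging, with same-well CellTiter-Glo for cytotoxicity. IC50 and CC50 came from 4-parameter logistic fits.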

Structures are written as SMILES.

For the molecule `Cn1nc(-c2cscn2)cc1C(=O)N1C[C@@H]2[C@H](C1)[C@H]2Oc1cc(C(C)(C)C(N)=O)cc(-c2ccc(F)cc2)n1` [Example 48, 2-(2-(4-fluorophenyl)-6-(((1R,5S,6s)-3-(1-methyl-3-(thiazol-4-yl)-1H-pyrazole-5-carbonyl)-3-azabicyclo[3.1.0]hexan-6-yl)oxy)pyridin-4-yl)-2-methylpropanamide], the EC50 with hMPV-GFP virus was above 100 nM; in the test on RSV-A2-GFP virus, below 10 nM.

Usually EC50 stands for the midpoint of the concentration-response curve.
